In PubChem BioAssay AID2060500 (Molecular Pharmacology Branch, DTP, NCI, 2025):

Tested on: 596521-263-R-J1-PDC complex spheroids, viability % of control
Assay: Anticancer human tumor 596521-263-R-J1-PDC patient-derived soft tissue sarcoma cell line growth inhibition [GQUAD]
Conditions: for IC50: curve of first compound; for viability, T/C: stronger effect = lower value; active = viability on the fitted dose curve at most 10% of control; inactive = the rest
Source text: DNA G-quadruplex Stabilizer Agents in Combinations in Complex Spheroids
A high-throughput screen of multi-cell type tumor spheroids was designed to identify active combinations of DNA G-quadruplex stabilizer agents and targeted small molecules. Complex spheroids include a stromal component modeled by human endothelial cells (HUVEC) and fibroblasts modeled by human mesenchymal stem cells (MSCs). The concentration ranges selected for each drug and investigational agent were based upon clinically achievable concentrations if the clinical Cmax of the agent was known.
Compounds. The drugs and investigational agents: pidnarulex (CX-5461; NSC782164), APTO-253 (NSC789042), BRACO-19 (NSC847499), peposertib (NSC802822), ceralasertib (NSC780249), elimusertib (NSC800525), camonsertib (NSC841442), AZD-1390 (NSC803789), olaparib (NSC753686), talazoparib (NSC767125), ART-558 (NSC835418), sotorasib (NSC818433), MRTX-1133 (NSC836407), SN-38 (NSC673596), topotecan (NSC609699), etoposide (NSC141540), doxorubicin (NSC123127), gemcitabine (NSC613327), 5-fluorouracil (NSC19893), paclitaxel (NSC125973), vemurafenib (NSC761431), panobinostat (NSC761190), R-306465 (JNJ-16241199; NSC773264), adavosertib (NSC754352), TP-3654 (NSC805149), carboplatin (NSC241240), KSQ-4279 (NSC840948), and staurosporine (NSC755774) were obtained from the National Cancer Institute (NCI) Developmental Therapeutics Program Chemical Repository (34). The FDA-approved anticancer drug set is available from the NCI Developmental Therapeutics Program. […] The stock solutions were prepared in dimethyl sulfoxide (DMSO, Sigma-Aldrich, St. Louis, MO, cat. D2650) at 800-fold the tested concentration and stored at -70 degrees C prior to their use. All drugs and investigational agents were tested over a range starting from a high concentration at or near the clinical Cmax and decreasing in half-log increments. If the clinical Cmax for an agent had not been determined, the highest concentration tested was 10 microM.
2.3 Cell Culture. All cells were maintained in an incubator at 37 degrees C and 5% CO2 with 95% humidity. The PDC lines were cultured according to standard operating procedures established by the NCI PDMR. All PDCs were thawed and cultured in Matrigel-coated flasks prepared with a working solution of 1X Ham's F-12 nutrient mix, without supplementation (Invitrogen, cat. 11765054), 100 U/mL penicillin-streptomycin (Invitrogen, cat. 15140122), and 2.5% Matrigel (Corning Inc., cat. 354248) for the first three passages. The 857933-349-R-J2-PDC line was cultured in 6C/Colon 1B media, which includes advanced DMEM/F-12 (Thermo Fisher Scientific, cat. 12634028), 10 mM HEPES (Thermo Fisher Scientific, cat. 15630080), 1X GlutaMAX supplement (Thermo Fisher Scientific, cat. 35050061), 0.1 mg/mL primocin (InvivoGen, cat. ant-pm-2), 10% defined fetal bovine serum, heat inactivated (HyClone Laboratories Inc., cat. SH30070.03HI), 50% L-WRN conditioned media (ATCC, cat. CRL-3276), 1.25 mM N-Acetyl-L-cysteine (Sigma-Aldrich, cat. A9165), 10 mM nicotinamide (Sigma-Aldrich, cat. N0636), 1X B-27 supplement (Thermo Fisher Scientific, cat. 17504044), 1X N-2 supplement (Thermo Fisher Scientific, cat. 17502048), 10 microM Y-27632 dihydrochloride (Tocris Bioscience, cat. 1254), and 50 ng/mL human EGF recombinant protein (Thermo Fisher Scientific, cat. PHG0311). The 485176-168-R4-J1-PDC line was cultured in Panc media, which includes all 6C/Colon 1B media components plus 100 ng/mL human FGF-10 (Thermo Fisher Scientific, cat. 100-26), 500 nM SB-431542 (Selleckchem, cat. S1067), and gastrin (Tocris, cat. 3006).
[…]
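Also: spheroids exposed to drugs for 7 days before viability reading.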

COc1ccc([C@@H](O)c2cc(-c3ncnc4cc(N5CCOCC5)ccc34)c(F)cc2Cl)nn1 + CN(C)c1ccc(Nc2c3ccc(NC(=O)CCN4CCCC4)cc3nc3cc(NC(=O)CCN4CCCC4)ccc23)cc1
7.49 µM: IC50 (second compound 1 µM)
> 10 µM: IC50 (second compound 0.316 µM) | IC50 (second compound 3.16 µM)
7.69 µM: IC50 (second compound 0.0316 µM)
inactive: viability, T/C (second compound 0.0316 µM, first compound 0.0316 µM) 95.1% | viability, T/C (second compound 0.0316 µM, first compound 0.1 µM) 91.2% | viability, T/C (second compound 0.0316 µM, first compound 0.316 µM) 97.5% | viability, T/C (second compound 0.0316 µM, first compound 1 µM) 88.4% | viability, T/C (second compound 0.0316 µM, first compound 3.16 µM) 67.7% | viability, T/C (second compound 0.0316 µM, first compound 10 µM) 44.8% | viability, T/C (second compound 0.1 µM, first compound 0.0316 µM) 89.5% | viability, T/C (second compound 0.1 µM, first compound 0.1 µM) 101% | viability, T/C (second compound 0.1 µM, first compound 0.316 µM) 91.9% | viability, T/C (second compound 0.1 µM, first compound 1 µM) 77.1% | viability, T/C (second compound 0.1 µM, first compound 3.16 µM) 65.6% | viability, T/C (second compound 0.1 µM, first compound 10 µM) 48.1% | viability, T/C (second compound 0.316 µM, first compound 0.0316 µM) 96.1% | viability, T/C (second compound 0.316 µM, first compound 0.1 µM) 94.2% | viability, T/C (second compound 0.316 µM, first compound 0.316 µM) 81.1% | viability, T/C (second compound 0.316 µM, first compound 1 µM) 81.8% | viability, T/C (second compound 0.316 µM, first compound 3.16 µM) 64.1% | viability, T/C (second compound 0.316 µM, first compound 10 µM) 51.8% | viability, T/C (second compound 1 µM, first compound 0.0316 µM) 93.8% | viability, T/C (second compound 1 µM, first compound 0.1 µM) 84.3% | viability, T/C (second compound 1 µM, first compound 0.316 µM) 93.9% | viability, T/C (second compound 1 µM, first compound 1 µM) 83.4% | viability, T/C (second compound 1 µM, first compound 3.16 µM) 63.2% | viability, T/C (second compound 1 µM, first compound 10 µM) 45.6% | viability, T/C (second compound 3.16 µM, first compound 0.0316 µM) 87.4% | viability, T/C (second compound 3.16 µM, first compound 0.1 µM) 87.5% | viability, T/C (second compound 3.16 µM, first compound 0.316 µM) 84.7% | viability, T/C (second compound 3.16 µM, first compound 1 µM) 66.1% | viability, T/C (second compound 3.16 µM, first compound 3.16 µM) 64.1% | viability, T/C (second compound 3.16 µM, first compound 10 µM) 49.5% | viability, T/C (second compound 10 µM, first compound 0.0316 µM) 70.5% | viability, T/C (second compound 10 µM, first compound 0.1 µM) 56.7% | viability, T/C (second compound 10 µM, first compound 0.316 µM) 59.1% | viability, T/C (second compound 10 µM, first compound 1 µM) 48.4% | viability, T/C (second compound 10 µM, first compound 3.16 µM) 49.4% | viability, T/C (second compound 10 µM, first compound 10 µM) 31.6%
1.16 µM: IC50 (second compound 10 µM)
9.12 µM: IC50 (second compound 0.1 µM)
